Source: US11844779B2, “PKC-Delta-I inhibitor formulations and uses thereof” (University of South Florida, priority 2016, dated 2023)

Assays:
PKCδI [1] = molecular target: T1, PKCδI (Mus musculus, UniProt P28867); experiment: Western blot on differentiating 3T3L1 cells (inhibitors added day 1 of differentiation); format: cell-based; settings: 3T3L1, inhibitors added day 1 of differentiation, 24 h; for cleavage and release of the PKCδI catalytic domain: C-terminal PKCδ antibody
T1 construct: endogenous in cells; host or cells: 3T3L1 (differentiating pre-adipocytes, day 1; mature adipocytes, day 6)
Method: The compounds identified from the docking modeling were tested for their ability to inhibit PKCδI. 3T3L1 cells were plated in 60 mm dishes and differentiated. PKCδI regulates cell cycle during differentiation of pre-adipocytes to adipocytes. The inhibitors were added on day 1 of differentiation during mitotic clonal expansion when PKCδI expression is high (18). After 24 h, the cells were harvested and western blot analysis was performed on whole cell lysates.

PKCδI [2] = molecular target: T1, PKCδI; experiment: Western blot on mature adipocytes (inhibitors added day 6 of differentiation); format: cell-based; settings: for phosphorylation of myelin basic protein (PKCδI substrate) / cleavage and release of the PKCδI catalytic domain: mature adipocytes, inhibitors added day 6 of differentiation, 24 h; for cleavage and release of the PKCδI catalytic domain: C-terminal PKCδ antibody
Method: Next, compounds 5139627, 5320091, 72950115, 28578828, 61397826 and 43844983 were tested on mature adipocytes. The inhibitors were added on day 6 of differentiation when the adipocytes are lipid laden. After 24 h, the cells were harvested and western blot analysis was performed on whole cell lysates.

PKCδI [3] = molecular target: T2, PKCδI (Homo sapiens, UniProt Q05655); experiment: In vitro kinase assay with recombinant PKCδI and SC35 as substrate; format: biochemical; settings: 10 nM, 30 min incubation prior to assay, phosphatidyl serine and ATP
Method: Next, in vitro kinase assays were performed with recombinant proteins PKCδI and SC35 (as substrate) in a kinase buffer containing phosphatidyl serine and ATP; with and without 10 nM 5139627, 28578828 (30 min incubation prior to assay).

PKCδI [4] = molecular target: T2, PKCδI; experiment: PKC kinase activity kit, colorimetric assay (ENZO); format: biochemical; settings: run in triplicate
Method: (§1) Briefly, a Protein Kinase C (PKC) kinase activity kit was used and a colorimetric assay (ENZO; run in triplicate) was performed. Relative kinase activity was calculated as (average absorbance of PKC isozyme−Average absorbance of blank)/quantity of pure kinase used per assay.

other PKCs = experiment: PKC kinase activity kit, colorimetric assay (ENZO), other PKC isozymes; format: biochemical; settings: run in triplicate
Method: as §1

obese adipocytes = experiment: WST-1 assay for cell viability; format: cell-based; settings: 10 nM
Method: A WST-1 assay performed using obese adipocytes treated with 513627 to evaluate toxicity of compound 513627. Briefly, obese adipocytes were treated with 10 nM of compound 513627 and a WST-1 assay for cell viability was performed. FIG. 5 represents data from four experiments.

PKCδVIII = molecular target: T3, PKCδVIII (Homo sapiens, UniProt Q05655); experiment: Western blot on adipocytes from obese donor, PKCδVIII; format: cell-based; settings: about 10-100 nM, about 24 h
T3 construct: adipocytes from the obese donor were treated with about 10-100 nM NP627; endogenous in cells; host or cells: primary human adipocytes from visceral adipose tissue of an obese donor
Text: (§2) The C-terminal fragment of PKCδI phosphorylates its substrates that mediate expression of pro-apoptotic proteins. For a functional read-out, an assay was designed to measure: (1) Bcl-xL switching to its pro-apoptotic variant Bcl-xS and (2) Caspase9b switching to its pro-apoptotic variant caspase 9a. Briefly, adipocytes were freshly isolated from human visceral adipose tissue of lean and obese donors (IRB #20295; lean BMI 22.1 and 23; obese BMI 43.7 and 44.3; non-diabetic, nonsmokers, non-cancer).
(§3) Additionally, adipocytes from the obese donor were treated with about 10-100 nM NP627 (compound 513627) for about 24 h (n=3). Expression of PKCδI_F, PKCδI_C, PKCδVIII, and β-Actin (control) were analyzed using western blotting.

Bxl-xS and caspase9a = experiment: PCR based expression of pro-apoptotic variants in adipocytes from obese donor; format: cell-based, human; settings: about 10 nM, about 24 h
Text: as §2
Additionally, adipocytes from the obese donor were treated with about 10 nM of NP627 for about 24 h (n=3). Expression of Bxl-xL, Bxl-xS, caspase9a, andβ-actin (control) were analyzed using a PCR based technique (n=3).

PKCδI [5] = molecular target: T2, PKCδI; experiment: Western blot on adipocytes from obese donor, PKCδI cleavage; format: cell-based; parameters: adipocytes from the obese donor were treated with about 10-100 nM NP627; endogenous in cells; host or cells: primary human adipocytes from visceral adipose tissue of an obese donor; settings: about 10-100 nM, about 24 h
Text: as §2, §3

[6] = both pre-adipocytes and mature adipocytes

T1 sequence (P28867 whole entry, the tested form may be a part): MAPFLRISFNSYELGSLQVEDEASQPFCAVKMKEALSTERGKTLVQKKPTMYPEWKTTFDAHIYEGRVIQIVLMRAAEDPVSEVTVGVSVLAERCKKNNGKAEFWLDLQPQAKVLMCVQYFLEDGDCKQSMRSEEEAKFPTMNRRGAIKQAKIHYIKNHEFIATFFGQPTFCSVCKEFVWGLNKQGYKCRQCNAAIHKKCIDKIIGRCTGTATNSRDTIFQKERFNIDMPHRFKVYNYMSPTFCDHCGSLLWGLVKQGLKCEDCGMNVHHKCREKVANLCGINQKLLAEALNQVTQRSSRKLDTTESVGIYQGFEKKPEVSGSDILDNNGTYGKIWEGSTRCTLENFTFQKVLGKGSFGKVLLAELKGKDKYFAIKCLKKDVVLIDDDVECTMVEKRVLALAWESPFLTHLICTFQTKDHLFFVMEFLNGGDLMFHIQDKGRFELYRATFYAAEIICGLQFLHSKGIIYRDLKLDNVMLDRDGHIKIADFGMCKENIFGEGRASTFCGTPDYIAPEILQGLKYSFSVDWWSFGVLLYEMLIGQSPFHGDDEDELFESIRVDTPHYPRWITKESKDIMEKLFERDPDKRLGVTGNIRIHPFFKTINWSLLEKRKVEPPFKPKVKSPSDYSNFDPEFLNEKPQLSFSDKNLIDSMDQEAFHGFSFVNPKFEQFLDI
T2 sequence (Q05655 whole entry): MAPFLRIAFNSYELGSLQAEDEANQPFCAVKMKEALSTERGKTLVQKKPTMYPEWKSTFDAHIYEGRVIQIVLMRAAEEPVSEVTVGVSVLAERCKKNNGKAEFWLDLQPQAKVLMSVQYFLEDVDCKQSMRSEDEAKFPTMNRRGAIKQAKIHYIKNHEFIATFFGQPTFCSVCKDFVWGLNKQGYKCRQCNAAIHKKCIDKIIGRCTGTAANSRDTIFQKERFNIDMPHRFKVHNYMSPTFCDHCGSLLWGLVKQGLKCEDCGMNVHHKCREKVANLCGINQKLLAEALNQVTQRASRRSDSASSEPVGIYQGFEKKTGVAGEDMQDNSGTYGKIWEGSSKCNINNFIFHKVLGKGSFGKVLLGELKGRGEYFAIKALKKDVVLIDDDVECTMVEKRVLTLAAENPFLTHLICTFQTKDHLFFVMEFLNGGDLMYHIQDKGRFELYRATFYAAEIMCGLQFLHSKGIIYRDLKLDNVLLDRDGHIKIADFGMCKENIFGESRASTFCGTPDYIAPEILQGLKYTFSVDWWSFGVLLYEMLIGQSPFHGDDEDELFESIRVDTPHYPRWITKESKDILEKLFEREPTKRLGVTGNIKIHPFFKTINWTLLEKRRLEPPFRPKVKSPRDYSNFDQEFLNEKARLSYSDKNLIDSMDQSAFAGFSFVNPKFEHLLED
T3 sequence (Q05655 1-707 isoform Q05655-2): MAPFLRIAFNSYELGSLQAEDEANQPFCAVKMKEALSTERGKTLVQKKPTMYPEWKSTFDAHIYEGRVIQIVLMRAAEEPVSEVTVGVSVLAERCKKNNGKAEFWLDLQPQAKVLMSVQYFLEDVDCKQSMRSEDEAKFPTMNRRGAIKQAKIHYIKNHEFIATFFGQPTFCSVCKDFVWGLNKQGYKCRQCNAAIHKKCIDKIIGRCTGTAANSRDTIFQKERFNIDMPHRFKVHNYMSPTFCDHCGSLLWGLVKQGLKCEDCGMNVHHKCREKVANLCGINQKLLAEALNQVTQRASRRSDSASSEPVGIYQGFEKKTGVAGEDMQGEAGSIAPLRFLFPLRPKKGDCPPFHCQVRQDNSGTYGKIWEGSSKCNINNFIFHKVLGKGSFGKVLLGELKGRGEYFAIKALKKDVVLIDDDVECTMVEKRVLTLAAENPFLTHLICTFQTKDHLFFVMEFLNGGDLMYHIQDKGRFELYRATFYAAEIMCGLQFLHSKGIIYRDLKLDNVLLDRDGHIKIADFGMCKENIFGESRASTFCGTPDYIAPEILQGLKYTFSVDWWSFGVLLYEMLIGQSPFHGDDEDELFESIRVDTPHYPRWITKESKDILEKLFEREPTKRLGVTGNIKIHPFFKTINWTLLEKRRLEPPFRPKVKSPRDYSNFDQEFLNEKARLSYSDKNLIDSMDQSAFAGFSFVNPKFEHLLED

| SMILES | cleavage and release of the PKCδI catalytic domain (PKCδI [1]) | phosphorylation of myelin basic protein (PKCδI substrate) (PKCδI [2]) | cleavage and release of the PKCδI catalytic domain (PKCδI [2]) | PKCδI activity (PKCδI [3]) | specificity for PKCδI (relative kinase activity) (PKCδI [4]) | other PKC isozyme activities (other PKCs) | cellular toxicity (cell viability) (obese adipocytes) | PKCδVIII (alternatively spliced variant) (PKCδVIII) | expression of Bxl-xS (Bxl-xS and caspase9a) | expression of caspase9a (Bxl-xS and caspase9a) | cleavage of PKCδI (PKCδI [5]) | phosphorylation of myelin basic protein (PKCδI substrate) (PKCδI [1]) | inhibition of PKCδI cleavage (PKCδI [2]; [6]) | inhibition of phosphorylation of MBP (PKCδI [2]; [6]) |
| --- | --- | --- | --- | --- | --- | --- | --- | --- | --- | --- | --- | --- | --- | --- |
| N=C(CCN1C(=O)c2ccccc2C1=O)NNC(=O)CCCC(=O)NNC(=N)CCN1C(=O)c2ccccc2C1=O [compound 5139627, N′~1~,N′~5~-bis[3-(1,3-dioxo-1,3-dihydro-2H-isoindo1-2-yl)propanimidoyl]pentanedihydrazide] | inhibit the cleavage and release | decreased phosphorylation | inhibited the cleavage and release | specifically inhibit PKCδI activity | specificity for PKCδI | not inhibited | did not appear to cause cellular toxicity | not inhibited | decrease expression | decrease expression | specifically inhibits cleavage of PKCδI | – | – | – |
| CC(C)(O)C(=O)C=Cc1ccc2c(c1)OCO2 [compound 5320091, 1-(1,3-benzodioxol-5-yl)-4-hydroxy-4-methyl-1-penten-3-one] | inhibit the cleavage and release | decreased phosphorylation | inhibited the cleavage and release | – | – | – | – | – | – | – | – | decreased phosphorylation | – | – |
| OCCNc1cc(-c2cc(CO)ccn2)c2cc[nH]c2n1 [compound 28578828, 2-({4-[4-(hydroxymethyl)pyridin-2-yl]-1H-pyrrolo[2,3-b]pyridin-6-yl}amino)ethanol] | inhibit the cleavage and release | decreased phosphorylation | inhibited the cleavage and release | specifically inhibit PKCδI activity | – | – | – | – | – | – | – | decreased phosphorylation | – | – |
| CN(Cc1cnccn1)C(=O)c1cccc(C#CC(C)(C)O)c1 [compound 43844983, 3-(3-hydroxy-3-methylbut-1-yn-1-yl)-N-methyl-N-(pyrazin-2-ylmethyl)benzamide] | inhibit the cleavage and release | decreased phosphorylation | inhibited the cleavage and release | – | – | – | – | – | – | – | – | decreased phosphorylation | completely inhibit | completely inhibit |
| Cc1nc2c(c(N(C)C)n1)CCN(C(=O)[C@@H]1C[C@@H](O)CN1)C2 [compound 61397826, (3R,5S)-5-{[4-(dimethylamino)-2-methyl-5,8-dihydropyrido[3,4-d]pyrimidin-7(6H)-yl]carbonyl}-3-pyrrolidinol] | inhibit the cleavage and release | decreased phosphorylation | inhibited the cleavage and release | – | – | – | – | – | – | – | – | decreased phosphorylation | – | – |
| CCN(C/C=C/c1ccccc1)C(=O)CCc1nc2ccccc2[nH]1 [compound 72950115, 3-(1H-benzimidazol-2-yl)-N-ethyl-N-[(2E)-3-phenylprop-2-en-1-yl]propanamide] | inhibit the cleavage and release | decreased phosphorylation | inhibited the cleavage and release | – | – | – | – | – | – | – | – | decreased phosphorylation | – | – |
